Here are results for one compound from US20220370448A1, “PHARMACEUTICAL COMPOSITION COMPRISING THIRD GENERATION SMALL MOLECULE EGFR INHIBITOR AND PREPARATION METHOD THEREOF” (Jiangsu Hansoh Pharmaceutical Group Co., LTD., priority 2018, published 2022).

A short description of one data set: Permeability. It is filed as in vitro ADME.
A further data set can be described thus: Solubility. It is filed as physicochemical. The note with it: dependence on pH. An excerpt:
The pharmaceutical composition prepared according to the present invention has a good and uniform dissolution in different dissolution media.

For a further data set, the target named is EGFR T790M mutant (Homo sapiens, UniProt P00533, T790M). Particulars: background statement, WO2016054987; cited from earlier work.
EGFR T790M mutant, sequence (P00533 25-1210 T790M): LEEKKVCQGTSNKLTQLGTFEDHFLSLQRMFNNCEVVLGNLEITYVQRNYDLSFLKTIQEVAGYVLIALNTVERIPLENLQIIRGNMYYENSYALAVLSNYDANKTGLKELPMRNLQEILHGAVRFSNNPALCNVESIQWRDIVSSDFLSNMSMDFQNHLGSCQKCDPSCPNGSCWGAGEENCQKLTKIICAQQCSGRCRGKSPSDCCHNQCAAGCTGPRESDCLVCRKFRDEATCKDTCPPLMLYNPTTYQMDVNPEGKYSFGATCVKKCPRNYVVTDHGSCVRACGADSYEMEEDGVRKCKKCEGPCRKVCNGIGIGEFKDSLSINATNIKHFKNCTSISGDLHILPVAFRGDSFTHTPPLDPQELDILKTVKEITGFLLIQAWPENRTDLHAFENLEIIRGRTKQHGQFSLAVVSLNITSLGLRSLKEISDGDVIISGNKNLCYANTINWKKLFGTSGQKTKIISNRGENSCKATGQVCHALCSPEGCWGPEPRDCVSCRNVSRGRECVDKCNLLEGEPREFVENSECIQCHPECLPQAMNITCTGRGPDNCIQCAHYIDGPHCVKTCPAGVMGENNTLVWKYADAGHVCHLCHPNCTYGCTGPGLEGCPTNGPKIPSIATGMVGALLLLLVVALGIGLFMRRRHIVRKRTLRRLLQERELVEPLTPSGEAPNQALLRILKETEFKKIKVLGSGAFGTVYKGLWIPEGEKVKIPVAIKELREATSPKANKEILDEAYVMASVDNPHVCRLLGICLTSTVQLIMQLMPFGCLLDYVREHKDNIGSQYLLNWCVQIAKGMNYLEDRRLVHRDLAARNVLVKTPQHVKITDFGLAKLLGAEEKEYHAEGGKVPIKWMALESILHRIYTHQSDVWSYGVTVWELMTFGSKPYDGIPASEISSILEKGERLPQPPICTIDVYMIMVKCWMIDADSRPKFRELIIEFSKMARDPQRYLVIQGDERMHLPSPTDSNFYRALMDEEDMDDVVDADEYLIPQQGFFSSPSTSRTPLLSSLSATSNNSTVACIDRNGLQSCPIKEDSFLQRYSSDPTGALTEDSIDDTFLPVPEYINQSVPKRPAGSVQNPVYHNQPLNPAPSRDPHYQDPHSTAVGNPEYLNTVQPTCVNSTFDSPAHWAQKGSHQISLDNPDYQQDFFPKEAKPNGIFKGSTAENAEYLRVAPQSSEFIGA
A further data set deals with wild-type EGFR (Homo sapiens, UniProt P00533). Particulars: background statement, WO2016054987; cited from earlier work.
wild-type EGFR, sequence (P00533 25-1210): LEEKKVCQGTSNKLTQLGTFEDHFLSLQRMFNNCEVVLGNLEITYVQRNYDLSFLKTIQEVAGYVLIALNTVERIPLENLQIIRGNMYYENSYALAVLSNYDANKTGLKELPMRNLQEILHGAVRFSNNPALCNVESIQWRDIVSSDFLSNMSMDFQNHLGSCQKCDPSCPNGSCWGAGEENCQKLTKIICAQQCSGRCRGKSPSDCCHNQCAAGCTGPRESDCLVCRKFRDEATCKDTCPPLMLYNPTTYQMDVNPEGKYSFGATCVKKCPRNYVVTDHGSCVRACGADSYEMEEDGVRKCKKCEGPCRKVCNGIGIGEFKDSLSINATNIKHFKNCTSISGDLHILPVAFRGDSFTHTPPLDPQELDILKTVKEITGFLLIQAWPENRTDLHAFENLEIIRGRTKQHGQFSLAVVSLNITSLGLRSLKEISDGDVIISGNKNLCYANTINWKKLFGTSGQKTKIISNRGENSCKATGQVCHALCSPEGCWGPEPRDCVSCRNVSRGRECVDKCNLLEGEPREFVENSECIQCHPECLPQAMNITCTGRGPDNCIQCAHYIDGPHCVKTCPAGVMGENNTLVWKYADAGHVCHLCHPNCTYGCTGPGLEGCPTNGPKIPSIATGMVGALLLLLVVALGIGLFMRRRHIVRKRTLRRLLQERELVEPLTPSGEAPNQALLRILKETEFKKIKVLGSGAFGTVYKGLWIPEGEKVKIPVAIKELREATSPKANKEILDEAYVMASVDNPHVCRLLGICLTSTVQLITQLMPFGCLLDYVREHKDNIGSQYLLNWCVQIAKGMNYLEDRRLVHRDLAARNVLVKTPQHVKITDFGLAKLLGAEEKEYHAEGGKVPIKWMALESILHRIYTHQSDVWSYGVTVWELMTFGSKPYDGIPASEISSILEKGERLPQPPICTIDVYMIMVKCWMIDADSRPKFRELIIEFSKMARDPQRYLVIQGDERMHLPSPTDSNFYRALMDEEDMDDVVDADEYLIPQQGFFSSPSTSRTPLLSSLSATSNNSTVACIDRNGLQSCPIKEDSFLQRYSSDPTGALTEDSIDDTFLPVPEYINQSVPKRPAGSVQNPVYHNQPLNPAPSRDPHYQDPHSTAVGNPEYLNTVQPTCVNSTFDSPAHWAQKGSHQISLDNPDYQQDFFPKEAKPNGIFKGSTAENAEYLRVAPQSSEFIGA

For the compound `C=CC(=O)Nc1cc(Nc2nccc(-c3cn(C4CC4)c4ccccc34)n2)c(OC)cc1N(C)CCN(C)C` [compound of formula I, N-(5-((4-(1-cyclopropyl-1H-indol-3-yl)pyrimidin-2-yl)amino)-2-((2-(dimethylamino)ethyl)(methyl)amino)-4-methoxyphenyl)acrylamide], the permeability result in the data set “Permeability” is on record as “low permeability”. In addition, the solubility result in the data set “Solubility” is reported as “greatly affected by pH”. In addition, the “selectivity for inhibiting the EGFR T790M mutant” value on EGFR T790M mutant is listed as “high selectivity”. Also, the “activity on wild-type EGFR” value at wild-type EGFR is reported as “no or low activity”.
